Measurements from publication PMC4774894 (Journal of natural products, 2015).

Test system: HIV-1 NL4-3
Conditions: for selectivity index CC50/EC50: CC50 (MT4 cells) / EC50 (HIV-1 NL4-3 in MT4); for selectivity index (SI) (bound or span stated in text for a group of compounds): bound or span over the group named

C=C(C)[C@]12C[C@@H](COC(=O)c3ccccc3)[C@@]34OC5(O[C@@H]1[C@@H]3[C@@H]1O[C@]1(CO)[C@@H](O)[C@@]1(O)[C@H]4[C@H]([C@H](C)[C@@H]1OC(=O)c1ccccc1)[C@H](C)CCCCCC[C@H]5O)O2 [Compound 10, gnidimacrin]
selectivity index CC50/EC50: ≥21500 | selectivity index (SI) (bound or span stated in text for a group of compounds): more than 10 000

C=C(C)[C@]12C[C@@H](COC(=O)c3ccccc3)[C@]34OC5(CCCCCCC[C@H](C)[C@@H]6[C@@H]3[C@]3(O[C@]6(C)OC3=O)[C@H](O)[C@@]3(COC(=O)CCCCCCC/C=C\C/C=C\CCCCC)O[C@H]3[C@H]4[C@H]1O5)O2 [Compound 2, Stelleralide E]
selectivity index CC50/EC50: ≥1 | selectivity index (SI) (bound or span stated in text for a group of compounds): < 50

C=C(C)[C@]12C[C@@H](COC(C)=O)[C@@]34OC5(O[C@@H]1[C@@H]3[C@@H]1O[C@]1(CO)[C@@H](O)[C@@]1(O)[C@H]4[C@H]([C@H](C)[C@@H]1OC(=O)c1ccccc1)[C@H](C)C[C@@H](OC(=O)c1ccccc1)CCCC[C@H]5O)O2 [Compound 3, Stelleralide F]
selectivity index CC50/EC50: ≥12903 | selectivity index (SI) (bound or span stated in text for a group of compounds): more than 10 000

C=C(C)[C@@]12O[C@@]3(/C=C/C=C/CCCCCCCCC)O[C@@H]1[C@@H]1[C@@H]4O[C@]4(CO)[C@@H](O)[C@]4(O)C(=O)C(C)=C[C@H]4[C@@]1(O3)[C@H](C)[C@H]2OC(C)=O [Compound 13, wikstroelide A]
selectivity index CC50/EC50: ≥1300

C=C(C)[C@]12C[C@@H](COC(=O)c3ccccc3)[C@@]34OC5(O[C@@H]1[C@@H]3[C@@H]1O[C@]1(COC(=O)c1ccccc1)[C@@H](O)[C@@]1(O)[C@H]4[C@H]([C@H](C)[C@@H]1O)[C@H](C)CCCCCC[C@H]5O)O2 [Compound 5, Stelleralide H]
selectivity index CC50/EC50: ≥13163 | selectivity index (SI) (bound or span stated in text for a group of compounds): more than 10 000

C=C(C)[C@@]12OC3(/C=C/C=C/CCCCCCCCCC)O[C@@H]1[C@@H]1[C@@H]4O[C@]4(CO)[C@@H](O)[C@]4(O)C(=O)C(C)=C[C@H]4[C@@]1(O3)[C@H](C)[C@H]2O [Compound 6, Stelleralide I]
selectivity index CC50/EC50: ≥135

C=C(C)[C@]12C[C@@H](COC(=O)c3ccccc3)[C@@]34OC5(O[C@@H]1[C@@H]3[C@@H]1O[C@]1(CO)[C@@H](O)[C@@]1(O)[C@H]4[C@H]([C@H](C)[C@@H]1OC(=O)c1ccccc1)[C@H](C)C[C@@H](OC(=O)c1ccccc1)CCCC[C@H]5O)O2 [Compound 4, Stelleralide G]
selectivity index CC50/EC50: ≥15342 | selectivity index (SI) (bound or span stated in text for a group of compounds): more than 10 000

C=C(C)[C@]12C[C@@H](COC(=O)c3ccccc3)[C@]34OC5(CCCCCCC[C@H](C)[C@@H]6[C@@H]3[C@]3(O[C@]6(C)OC3=O)[C@H](O)[C@@]3(COC(=O)CCCCCCCCCCCCCCC)O[C@H]3[C@H]4[C@H]1O5)O2 [Compound 1, Stelleralide D]
selectivity index CC50/EC50: ≥18 | selectivity index (SI) (bound or span stated in text for a group of compounds): < 50

C=C(C)[C@]1(O)C[C@@H](C)[C@@]2(O)[C@H]([C@H]1OC(=O)/C=C/C=C/CCCCCCCCC)[C@@H]1O[C@]1(CO)[C@@H](O)[C@]1(O)C(=O)C(C)=C[C@H]12 [Compound 17, wikstroelide M]
selectivity index CC50/EC50: ≥281

C=C(C)[C@]12C[C@@H](COC(=O)c3ccccc3)[C@]34OC5(CCCCCCC[C@H](C)[C@@H]6[C@@H]3[C@]3(O[C@]6(C)OC3=O)[C@H](O)[C@@]3(CO)O[C@H]3[C@H]4[C@H]1O5)O2 [Compound 8, stelleralide C]
selectivity index CC50/EC50: ≥41 | selectivity index (SI) (bound or span stated in text for a group of compounds): < 50

C=C(C)[C@]12C[C@@H](C)[C@@]34O[C@](/C=C/C=C/CCCCCCCCC)(O[C@@H]1[C@@H]3[C@@H]1O[C@]1(CO)[C@@H](O)[C@]1(O)C(=O)C(C)=C[C@H]14)O2 [Compound 16, huratoxin]
selectivity index CC50/EC50: ≥5384

C=C(C)[C@]12C[C@@H](C)[C@@]34O[C@](CCCCCCCCC)(O[C@@H]1[C@@H]3[C@@H]1O[C@]1(CO)[C@@H](O)[C@]1(O)C(=O)C(C)=C[C@H]14)O2 [Compound 19, simplexin]
selectivity index CC50/EC50: ≥400

C=C(C)[C@]1(O)C[C@@H](C)[C@@]2(O)[C@H]([C@H]1OC(=O)/C=C/C=C/CCCCCCCCC)[C@H](O)[C@@](O)(CO)[C@@H](O)[C@]1(O)C(=O)C(C)=C[C@H]12 [Compound 7, Stelleralide J]
selectivity index CC50/EC50: ≥100

C=C(C)[C@@]1(O)[C@H](OC(=O)/C=C/C=C/CCCCCCCCC)[C@@H]2[C@@H]3O[C@]3(CO)[C@@H](O)[C@]3(O)C(=O)C(C)=C[C@H]3[C@@]2(O)[C@H](C)[C@H]1OC(C)=O [Compound 18, wikstroelide J]
selectivity index CC50/EC50: ≥345

C=C(C)[C@]12C[C@@H](C)[C@]34O[C@]5(CCCCCCC[C@H](C)[C@@H]6[C@@H]3[C@]3(O[C@]6(C)OC3=O)[C@H](O)[C@@]3(CO)O[C@H]3[C@H]4[C@H]1O5)O2 [Compound 9, pimelotide A]
selectivity index CC50/EC50: ≥16 | selectivity index (SI) (bound or span stated in text for a group of compounds): < 50

C=C(C)[C@]12C[C@@H](COC(=O)c3ccccc3)[C@@]34OC5(CCCCCCC[C@@H](C)[C@H]6[C@H](C)C(=O)[C@@](O)([C@H](O)[C@@]7(CO)O[C@H]7[C@H]3[C@H]1O5)[C@@H]64)O2 [Compound 12, wikstroelide F]
selectivity index CC50/EC50: ≥318

C=C(C)[C@]12C[C@@H](C)[C@@]34OC5(CCCCCCC[C@@H](C)[C@H]6[C@H](C)[C@H](OC(=O)c7ccccc7)[C@@](O)([C@H](O)[C@@]7(CO)O[C@H]7[C@H]3[C@H]1O5)[C@@H]64)O2 [Compound 11, pimelea factor P2]
selectivity index CC50/EC50: ≥14272 | selectivity index (SI) (bound or span stated in text for a group of compounds): more than 10 000

C=C(C)[C@@]12OC3(/C=C/C=C/CCCCCCCCCC)O[C@@H]1[C@@H]1[C@@H]4O[C@]4(CO)[C@@H](O)[C@]4(O)C(=O)C(C)=C[C@H]4[C@@]1(O3)[C@H](C)[C@H]2OC(C)=O [Compound 14, wikstroelide B]
selectivity index CC50/EC50: ≥392

C=C(C)[C@]12C[C@@H](C)[C@@]34OC(/C=C/C=C/CCCCCCCCCC)(O[C@@H]1[C@@H]3[C@@H]1O[C@]1(CO)[C@@H](O)[C@]1(O)C(=O)C(C)=C[C@H]14)O2 [Compound 15, wikstrotoxin A]
selectivity index CC50/EC50: ≥1284
